Laboratory results published in patent US6683095B2, “CDK inhibitors having 3-hydroxychromen-4-one structure” (LG Life Sciences Ltd., priority 2000, dated 2004).

Legend:
CDK4/cyclin D1 = target: T1, CDK4/cyclin D1 (Homo sapiens, UniProt P11802); experiment: Inhibitory activity against CDK4 (CDK4/cyclin D1 kinase assay, GST-Rb substrate, 32P-ATP); assay type: biochemical; conditions: 100 μM ATP, 30° C., 30 minutes
T1 construct: GST; made in house; host or cells: insect cell
Protocol: (§1) The activities of CDK2/cyclin A and CDK4/cyclin D1 were determined as follows. About 100 ng of enzyme was reacted in a total 100 μl of 20 mM Tris(pH 8.0), 100 mM NaCl, 10 mM MgCl2 buffer solution containing 20 μg of GST-Rb protein, 100 μM of ATP and 5 μCi of p^32-γ-ATP at 30° C. for 30 minutes. Then, EDTA was added to a concentration of 20 mM to stop the enzyme reaction. Subsequently, 30 μl of 50% glutathione bead (purchased from Pharmacia) was added to attach GST-Rb to the bead, which was washed three times with 20 mM Tris(pH 8.0), 100 mM NaCl, 10 mM EDTA solution, and then scintillation counting was carried out. To analyze the inhibitory activity of the compound, the inhibitor having a proper concentration was added to the enzyme reaction solution, and then the enzyme activity was measured according to the above method.

Acute oral toxicity test = conditions: mouse, in vivo; oral administration, ICR male, observed 7 days, Litchfield-Wilcoxon method
Protocol: To determine the acute oral toxicities of the test compounds, solutions containing a compound in different concentrations from each other were administered orally to ICR male with a dose of 10 ml/kg body weight. After oral administration, lethality and symptoms for 7 days were observed, and LD50 (mg/kg) was calculated according to Litchfield-Wilcoxon method.

CDK2/cyclin A = target: T2, CDK2/cyclin A (Homo sapiens, UniProt P24941); experiment: Inhibitory activity against CDK2 (CDK2/cyclin A kinase assay, GST-Rb substrate, 32P-ATP); assay type: biochemical; conditions: 100 μM ATP, 30° C., 30 minutes
T2 construct: His; made in house; host or cells: insect cell (baculovirus co-infection)
Protocol: The inhibitory activity against CDK2 was measured by referring to Kitagawa, M. et al., Oncogene 9; 2549, 1994 and that against CDK4 was measured by referring to Carlson, B. A. et al., Cancer Research 56; 2473, 1996.
The part of amino acid positions 780 to 928 of C-terminus of human Rb protein was isolated, N-terminus thereof was labelled with GST protein, large amount thereof was expressed in bacteria and purified to be used as the substrate for the enzyme.
as §1
The inhibitory activity against CDK2 and CDK4 of the compound of formula (1) according to the present invention was represented as IC50 value (see the following Table 1).

T1 sequence (P11802 whole entry): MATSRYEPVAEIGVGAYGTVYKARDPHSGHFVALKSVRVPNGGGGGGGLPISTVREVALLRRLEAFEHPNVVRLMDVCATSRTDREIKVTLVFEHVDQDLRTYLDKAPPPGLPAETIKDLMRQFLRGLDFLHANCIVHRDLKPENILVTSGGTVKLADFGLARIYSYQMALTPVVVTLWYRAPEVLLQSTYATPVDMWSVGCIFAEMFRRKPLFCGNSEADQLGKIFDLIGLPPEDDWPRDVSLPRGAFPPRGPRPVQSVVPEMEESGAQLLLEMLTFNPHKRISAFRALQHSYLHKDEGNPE
T1 sequence (P24385 whole entry partner): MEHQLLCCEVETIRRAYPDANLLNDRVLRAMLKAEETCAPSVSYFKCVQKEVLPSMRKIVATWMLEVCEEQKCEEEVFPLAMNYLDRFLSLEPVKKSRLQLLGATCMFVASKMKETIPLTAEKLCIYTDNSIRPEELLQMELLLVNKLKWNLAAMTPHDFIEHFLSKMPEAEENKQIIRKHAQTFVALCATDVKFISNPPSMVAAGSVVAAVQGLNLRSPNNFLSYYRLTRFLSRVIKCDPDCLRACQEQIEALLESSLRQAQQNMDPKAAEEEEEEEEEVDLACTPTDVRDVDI

| SMILES | IC50 (CDK4/cyclin D1) | IC50 (CDK2/cyclin A) | LD50 at 7 days (Acute oral toxicity test) |
| --- | --- | --- | --- |
| Cc1cc(C2CCN(C)CC2)c2oc(-c3ccc(O)c(Cl)c3)c(O)c(=O)c2c1 [Compound 38, 2-(3-chloro-4-hydroxyphenyl)-3-hydroxy-6-methyl-8-(1-methyl-4-piperidinyl)-4H-chromen-4-one] | 0.12 µM | 0.5 µM | > 3000 mg/kg |
| Cc1cc(N2CCCS2(=O)=O)c2oc(-c3ccc(O)c(Cl)c3)c(O)c(=O)c2c1 [Compound 17, 2-[2-(3-chloro-4-hydroxyphenyl)-3-hydroxy-6-methyl-4-oxo-4H-chromen-8-yl]-1λ^6-isothiazolidin-1,1-dione] | 0.195 µM | 0.185 µM | > 3000 mg/kg |
| Cc1cc(N)c2oc(-c3ccc(O)cc3)c(O)c(=O)c2c1 [Compound 4, 8-amino-2-(4-hydroxyphenyl)-3-hydroxy-6-methyl-4H-chromen-4-one] | 2.1 µM | 2.1 µM |  |
| CC(=O)Nc1cc(C)cc2c(=O)c(O)c(-c3ccc(O)c(NC(C)C)c3)oc12 [Compound 7A, N-{2-[4-hydroxy-3-(isopropylamino)phenyl]-3-hydroxy-6-methyl-4-oxo-4H-chromen-8-yl}acetamide] | 47 µM | 18 µM |  |
| Cc1cc(N2CCCS2(=O)=O)c2oc(-c3ccc(O)c(C(F)(F)F)c3)c(O)c(=O)c2c1 [Compound 24, 2-[3-hydroxy-2-(4-hydroxy-3-trifluoromethylphenyl)-6-methyl-4-oxo-4H-chromen-8-yl]-1λ^6-isothiazolidin-1,1-dione] | 2.1 µM | 0.25 µM |  |
| Cc1cc([N+](=O)[O-])c2oc(-c3ccc(O)c([N+](=O)[O-])c3)c(O)c(=O)c2c1 [Compound 2, 2-(4-hydroxy-3-nitrophenyl)-3-hydroxy-6-methyl-8-nitro-4H-chromen-4-one] | 7.7 µM | 4.5 µM |  |
| CN(C)c1cc(N2CCCS2(=O)=O)c2oc(-c3ccc(O)c(Cl)c3)c(O)c(=O)c2c1 [Compound 36, 2-[2-(3-chloro-4-hydroxyphenyl)-6-(dimethylamino)-3-hydroxy-4-oxo-4H-chromen-8-yl]-1λ^6-isothiazolidin-1,1-dione] | 0.6 µM | 0.5 µM | > 3000 mg/kg |
| O=c1c(O)c(-c2ccc(O)cc2)oc2c(N3CCCS3(=O)=O)cc(Nc3ccccc3)cc12 [Compound 31, 2-[6-anilino-3-hydroxy-2-(4-hydroxyphenyl)-4-oxo-4H-chromen-8-yl]-1λ^6-isothiazolidin-1,1-dione] | 3 µM | 1.4 µM |  |
| CC(=O)Nc1cc(C)cc2c(=O)c(O)c(-c3ccc(O)c(N)c3)oc12 [Compound 7B, N-[2-(3-amino-4-hydroxyphenyl)-3-hydroxy-6-methyl-4-oxo-4H-chromen-8-yl]acetamide] | 17 µM | 3 µM |  |
| Cc1cc(N2CCCS2(=O)=O)c2oc(-c3ccc(O)cc3)c(O)c(=O)c2c1 [Compound 15, 2-[3-hydroxy-2-(4-hydroxyphenyl)-6-methyl-4-oxo-4H-chromen-8-yl]-1λ^6-isothiazolidin-1,1-dione] | 0.55 µM | 0.25 µM | > 3000 mg/kg |
| Cc1cc(-c2cc[n+](C)cc2)c2oc(-c3ccc(O)c(Cl)c3)c(O)c(=O)c2c1 [Compound 40, 4-[2-(3-chloro-4-hydroxyphenyl)-3-hydroxy-6-methyl-4-oxo-4H-chromen-8-yl]-1-methylpyridinium bromide] | 0.31 µM | 0.7 µM | > 3000 mg/kg |
| O=c1c(O)c(-c2ccc(O)cc2)oc2c(N3CCCS3(=O)=O)cc(NC3CCCCC3)cc12 [Compound 30, 2-[6-(cyclohexylamino)-3-hydroxy-2-(4-hydroxyphenyl)-4-oxo-4H-chromen-8-yl]-1λ^6-isothiazolidin-1,1-dione] | 1.6 µM | 5.6 µM |  |
| Cc1cc(N2CCCS2(=O)=O)c2oc(-c3ccc(O)cc3O)c(O)c(=O)c2c1 [Compound 20, 2-[2-(2,4-dihydroxyphenyl)-3-hydroxy-6-methyl-4-oxo-4H-chromen-8-yl]-1λ^6-isothiazolidin-1,1-dione] | 500 µM | 1000 µM |  |
| Cc1ccc2oc(-c3ccc(O)c(O)c3Br)c(O)c(=O)c2c1 [Compound 14, 2-(2-bromo-3,4-dihydroxyphenyl)-3-hydroxy-6-methyl-4H-chromen-4-one] | 11 µM | 500 µM |  |
| Cc1cc(NC(N)=O)c2oc(-c3ccc(O)c(NC(N)=O)c3)c(O)c(=O)c2c1 [Compound 10, N-{5-[8-(ureido)-3-hydroxy-6-methyl-4-oxo-4H-chromen-2-yl]-2-hydroxyphenyl}urea] | 100 µM | 30 µM |  |
| CC(=O)Nc1cc(C)cc2c(=O)c(O)c(-c3ccc(O)c([N+](=O)[O-])c3)oc12 [Compound 3, N-[2-(4-hydroxy-3-nitrophenyl)-3-hydroxy-6-methyl-4-oxo-4H-chromen-8-yl]acetamide] | 3.9 µM | 6 µM |  |
| Cc1ccc2oc(-c3ccc(O)c(O)c3O)c(O)c(=O)c2c1 [Compound 13, 3-hydroxy-6-methyl-2-(2,3,4-trihydroxyphenyl)-4H-chromen-4-one] | 50 µM | 1000 µM |  |

Second part, led by results:

| IC50 (CDK4/cyclin D1) | IC50 (CDK2/cyclin A) | SMILES | LD50 at 7 days (Acute oral toxicity test) |
| --- | --- | --- | --- |
| 24 µM | 13 µM | Cc1cc(N2CCCS2(=O)=O)c2oc(-c3ccc(F)c(Cl)c3)c(O)c(=O)c2c1 [Compound 21, 2-[2-(3-chloro-4-fluorophenyl)-3-hydroxy-6-methyl-4-oxo-4H-chromen-8-yl]-1λ^6-isothiazolidin-1,1-dione] |  |
| 1.1 µM | 0.45 µM | Cc1cc(N2CCCS2(=O)=O)c2oc(-c3ccc(O)c(F)c3)c(O)c(=O)c2c1 [Compound 16, 2-[2-(3-fluoro-4-hydroxyphenyl)-3-hydroxy-6-methyl-4-oxo-4H-chromen-8-yl]-1λ^6-isothiazolidin-1,1-dione] |  |
| 5 µM | 1.5 µM | Cc1cc(N2CCCS2(=O)=O)c2oc(-c3ccc(O)c(CO)c3)c(O)c(=O)c2c1 [Compound 23, 2-{3-hydroxy-2-[4-hydroxy-3-(hydroxymethyl)phenyl]-6-methyl-4-oxo-4H-chromen-8-yl}-1λ^6-isothiazolidin-1,1-dione] |  |
| 1.8 µM | 1.3 µM | CC(=O)Nc1cc(N2CCCS2(=O)=O)c2oc(-c3ccc(O)c(Cl)c3)c(O)c(=O)c2c1 [Compound 34, N-[2-(3-chloro-4-hydroxyphenyl)-8-(1,1dioxo-1λ^6-isothiazolidin-2-yl)-3-hydroxy-4-oxo-4H-chromen-6-yl]acetamide] |  |
| 2 µM | 0.7 µM | Cc1cc(N2CCCS2(=O)=O)c2oc(-c3ccc(O)c(C)c3)c(O)c(=O)c2c1 [Compound 22, 2-[3-hydroxy-2-(4-hydroxy-3-methylphenyl)-6-methyl-4-oxo-4H-chromen-8-yl]-1λ^6-isothiazolidin-1,1-dione] |  |
| 0.65 µM | 0.178 µM | Cc1cc(C2CCN(C)CC2)c2oc(-c3ccc(O)c(C)c3)c(O)c(=O)c2c1 [Compound 42, 3-hydroxy-2-(4-hydroxy-3-methylphenyl)-6-methyl-8-(1-methyl-4-piperidinyl)-4H-chromen-4-one] |  |
| 20 µM | 1.4 µM | Cc1cc(N)c2oc(-c3ccc(O)c(N)c3)c(O)c(=O)c2c1 [Compound 1, 8-amino-2-(3-amino-4-hydroxyphenyl)-3-hydroxy-6-methyl-4H-chromen-4-one] |  |
| 0.15 µM | 0.56 µM | Cc1cc(C2CCN(C)CC2)c2oc(-c3ccc(O)cc3)c(O)c(=O)c2c1 [Compound 41, 2-(4-hydroxyphenyl)-3-hydroxy-6-methyl-8-(1-methyl-4-piperidinyl)-4H-chromen-4-one] |  |
| 0.18 µM | 0.07 µM | Nc1cc(N2CCCS2(=O)=O)c2oc(-c3ccc(O)c(Cl)c3)c(O)c(=O)c2c1 [Compound 35, 2-[6-amino-2-(3-chloro-4-hydroxyphenyl)-3-hydroxy-4-oxo-4H-chromen-8-yl]-1λ^6-isothiazolidin-1,1-dione] |  |
| 0.21 µM | 0.075 µM | Cc1cc(N2CCCS2(=O)=O)c2oc(-c3ccc(O)c(Br)c3)c(O)c(=O)c2c1 [Compound 18, 2-[2-(3-bromo-4-hydroxyphenyl)-3-hydroxy-6-methyl-4-oxo-4H-chromen-8-yl]-1λ^6-isothiazolidin-1,1-dione] |  |
| < 1 µM | < 1 µM | Cc1cc(C2CCN(CCO)CC2)c2oc(-c3ccc(O)c(Cl)c3)c(O)c(=O)c2c1 [Compound 44, 2-(3-chloro-4-hydroxyphenyl)-3-hydroxy-8-[1-(2-hydroxyethyl)-4-piperidinyl]-6-methyl-4H-chromen-4-one] |  |
| 0.28 µM | 0.13 µM | Cc1cc(-c2ccncc2)c2oc(-c3ccc(O)c(Cl)c3)c(O)c(=O)c2c1 [Compound 39, 2-(3-chloro-4-hydroxyphenyl)-3-hydroxy-6-methyl-8-(4-pyridinyl)-4H-chromen-4-one] |  |
